Data on 1 substance can be found in patent publication US7521432B2, “Compositions and methods for identifying agents which regulate chromosomal stability, gene activation and aging” (priority 2000, dated 2009).

The series concerns human HeLa cell extracts. As to the kind of experiment: O-acetyl-ADP ribose utilization by enzymes from human HeLa cell extracts. It is filed as in vitro ADME. The note with it: HeLa cell extract vs buffer control, time points up to 3 hrs, HPLC. The method, then:
P/CAF [^3H]-monoacetylation of H3 peptide. The histone acetyltransferase P/CAF was used to monoacetylate H3 peptide on Lysine 14 (12). P/CAF (0.175 μM) was mixed with [^3H]-acetyl CoA (33.3 μM, 1.88 Ci/mmol) and H3 peptide (175 μM) for 20 min at 25° C. prior to quenching with TFA to 1%. Mono [^3H]-acetylated H3 peptide was separated from unmodified H3 by HPLC analysis as described above. MALDI/ESI Mass Spectrometry Analyses. MALDI mass spectrometry was performed (Oregon State University, Environmental Health Sciences Center) on a custom-built reflector time-of-flight mass spectrometer equipped with a two-stage delayed extraction source. […] Every mass spectrum was recorded as the sum of 20 consecutive spectra, each produced by a single pulse of photons. […] The amount of [^3H]-AcLys14 H3 peptide and [^3H]-O-acetyl ADP ribose was determined by liquid scintillation counting of these species separated on reverse phase HPLC. […] Protein concentrations of supernatants were determined by the method of Bradford. […]
To provide evidence for the existence of human cellular proteins/enzymes that are capable of binding and catalyzing the conversion or decomposition of O-acetyl-ADP ribose, human HeLa cell extracts were generated and the ability of proteins within the extract to catalyze the decomposition of O-acetyl-ADP ribose was assessed. […]

As to O-acetyl-ADP ribose, the “conversion/consumption of O-acetyl-ADP ribose by cell extract” value is recorded as “convert O-acetyl-ADP ribose to a distinct, but as yet unidentified species”. Also, for the setting “listed as O-acetyl ADP ribose”, the “conversion/consumption of O-acetyl-ADP ribose by cell extract” value is “capable of consuming O-acetyl ADP ribose”.
